Assay results from patent US20230279346A1, “METHODS OF DIFFERENTIATION TO NEURONAL CELLS AND KITS THEREFOR” (priority 2016, published 2023).

How the values were obtained:
[1] = system: H9 human ESC-derived NSCs; experiment: Differentiation of H9 ESC-derived NSCs, phase-contrast images and MAP2/SOX1 staining; type: cell-based; conditions: Day 14; 0.2 micromolar
From the text: (§1) To differentiate the NSCs into neuronal cells, cryo-preserved H9 ESC-derived NSCs were thawed and plated on poly-D-lysine 96-well plates (Cat. No. 08-774-255, Thermo Fisher Scientific, Waltham Mass.) coated with laminin (Cat. No. 23017, Thermo Fisher Scientific, Waltham Mass.) at a density of 5×10^4 cells/cm2. The cultures were maintained in the neuronal differentiation medium containing NEUROBASAL™ Medium (Cat. No. 21103, Thermo Fisher Scientific, Waltham Mass.), 2% B27 Supplement (Cat. No. 17504, Thermo Fisher Scientific, Waltham Mass.), 1% GLUTAMAX™ Supplement (Cat. No. 35050, Thermo Fisher Scientific, Waltham Mass.) and 200 micromolar ascorbic acid (Cat. No. A8960, Sigma-Aldrich, St. Louis Mo.) with or without the gamma-secretase inhibitor Compound E (0.2 micromolar, Cat. No. 565790, EMD Millipore, Billerica Mass.). Every 2-3 days, half spent medium was removed from each well of the culture plates and the same volume of fresh medium was added into each well.
At two weeks of NSC differentiation into neuronal cells, cells were fixed with 4% paraformaldehyde and stained with antibodies against neuronal marker MAP2 (polyclonal, Cat. No. PA5-17646, Thermo Fisher Scientific, Waltham Mass.) and neural stem cell marker SOX1 (polyclonal, Cat. No. AF3369, R&D Systems, Minneapolis Minn.) according to the manufacturers' protocols.

[2] = system: primary rat cortical neuronal cells; experiment: Differentiation of primary rat cortical neuronal cells, GFAP and HuC&D staining; type: cell-based; conditions: two weeks of differentiation
From the text: Cryopreserved primary rat cortical neuronal cells (Cat. No. A1084001, Thermo Fisher Scientific, Waltham Mass.), which had been isolated from rodent embryonic brain, were thawed and plated on poly-D-lysine 96-well plates (Cat. No. 08-774-255, Thermo Fisher Scientific, Waltham Mass.) coated with laminin (Cat. No. 23017, Thermo Fisher Scientific, Waltham Mass.) at a density of 8×10^4 cells/cm2. The culture medium was neuronal differentiation medium containing NEUROBASAL™ Medium (Cat. No. 21103, Thermo Fisher Scientific, Waltham Mass.), 2% B27 Supplement (Cat. No. 17504, Thermo Fisher Scientific, Waltham Mass.), 1% GLUTAMAX™ Supplement (Cat. No. 35050, Thermo Fisher Scientific, Waltham Mass.) without or with gamma secretase inhibitor Compound E. Every 2-3 days, half spent medium was removed from each well of the culture plates and the same volume of fresh medium was added into each well. At two weeks of differentiation, cells were fixed with 4% paraformaldehyde and stained with antibodies against neuronal marker HuC&D and astroglial marker glial fibrillary acidic protein (GFAP).

NSC cultures = experiment: CYQUANT Direct Cell Proliferation Assay; type: cell-based
Description: The proliferation and electrophysiology of cells resulting from differentiation in the presence of Compound E were compared to NSC control cultures. NSC cultures were plated at 20,000 cells per well on Day 0.
The CYQUANT™ Direct Cell Proliferation Assay (Molecular Probes Cat. No. C35011, Eugene Oreg.) was used to provide quantitation of proliferation at Day 4 and Day 7 of culture.

H9 ESC-derived NSCs [3] = experiment: EdU incorporation proliferation assay (CLICK-IT EdU); type: cell-based, human; conditions: Day 6 of differentiation, EdU 24 h; 0.2 micromolar
Description: (§2) Differentiation of H9 ESC-derived NSCs was the same as for Example 2. At Day 6 of differentiation, cells were incubated with the nucleoside thymidine analog EdU for 24 h. EdU is incorporated into DNA during active DNA synthesis with the result that proliferating cells become labeled. EdU positive cells were detected using the CLICK-IT™ EdU Alexa FLUOR™ 488 HCS Assay (Cat. No. C10350, Thermo Fisher Scientific, Waltham Mass.) according to the manufacturer's protocols. Cells were then fixed with 4% paraformaldehyde and stained with antibodies against the apoptotic cell death marker caspase 9 (polyclonal, Cat. No. PA5-16358, Thermo Fisher Scientific, Waltham Mass.) according to the manufacturer's protocol.

H9 ESC-derived NSCs [4] = experiment: Caspase 9 staining for apoptotic cell death; type: cell-based, human; conditions: six days of differentiation; 0.2 micromolar
Description: as §2

H9 ESC-derived NSCs [5] = experiment: Immunofluorescent image analysis: cells positive for HuC/D and negative for SOX1; type: cell-based, human
From the text: (§3) Cells cultured in differentiation medium without the presence of the gamma-secretase inhibitor served as a control. In the test groups, cells were separately differentiated in the presence of Compound E at 0.2 micromolar, YO-01027 at concentrations of 0.3 micromolar, 1.5 micromolar and 7.5 micromolar, LY411575 at concentrations of 0.01 micromolar, 0.05 micromolar, 0.25 micromolar, 0.5 micromolar, 1.0 micromolar and 2.0 micromolar, and MK-0752 at concentrations of 0.8 micromolar, 4 micromolar, 20 micromolar, 40 micromolar and at 80 micromolar. Eight wells were tested for each concentration of each inhibitor.

iPSC-derived NSCs = experiment: Differentiation of iPSC-derived NSCs, phase images and NESTIN/DCX staining; type: cell-based, human; conditions: 0.1 micromolar
From the text: Human induced pluripotent stem cells were derived from human fibroblasts using the CYTOTUNE™-iPS 2.0 Sendai Reprogramming Kit (Cat. No. A16517, INVITROGEN™, a part of Thermo Fisher Scientific, Waltham Mass.) and were induced to neural stem cells (NSCs) using the xeno free version of the GIBCO™ PSC Neural Induction Medium (Cat. No. A1647801, Thermo Fisher Scientific, Waltham Mass.).
To differentiate the NSCs into neuronal cells, cryo-preserved iPSC-derived NSCs were recovered and NSC passage three cells were plated on a 24 well plate (Cat. No. 087721, Thermo Fisher Scientific, Waltham Mass.) coated with human laminin (Cat. No. L6274, Sigma-Aldrich, St. Louis Mo.) at a density of 1˜5×10^4 cells/cm2. The cultures were maintained in neuronal differentiation medium containing NEUROBASAL™ Medium (Cat. No. 21103, Thermo Fisher Scientific, Waltham Mass.), 2% B27 Xeno Free Supplement (Cat. No. A1486701, Thermo Fisher Scientific, Waltham Mass.), 200 micromolar ascorbic acid (Cat. No. A8960, Sigma-Aldrich, St. Louis Mo.) with or without the gamma-secretase inhibitor Compound E (0.1 micromolar, Cat. No. 565790, EMD Millipore, Billerica Mass.). Every 2-3 days, medium was replenished with respective medium.
[…] No. 48-1200, Thermo Fisher Scientific, Waltham Mass.) and the neural stem cell marker NESTIN (Monoclonal, Cat. No. 611658, BD Biosciences, Franklin Lakes N.J.) according to the manufacturers' protocols.

H9 ESC-derived NSCs [6] = experiment: Long-term maintenance of differentiated neuronal cells; type: cell-based, human; conditions: 0.2 micromolar; without inhibitor cells detached at three weeks
From the text: as §1
For this study, the differentiation of H9 ESC-derived NSCs was the same as for Example 2. Without presence of the gamma secretase inhibitor during differentiation, neuronal cells detached from the culture plate at three weeks after differentiation as shown by the image of FIG. 7A. This effect may be due to the very high density of proliferated neural stem cells present. […]

H9 ESC-derived NSCs [7] = experiment: Cell clump area after neuronal differentiation (INCUCYTE ZOOM System); type: cell-based, human; conditions: for cell clumping vs control group (cell clump area, FIG. 6): two weeks, Compound E 0.2, YO-01027 0.3, LY411575 0.25, MK-0752 20 micromolar, p<0.01
Description: Also, at the end of that two week period of differentiation, the area of cell clumps was calculated using the [sequence] ZOOM™ System (Essen BioScience, Ann Arbor Mich.) by defining the area of cell mass ≥10,000 μm^2 as a cell clump.
as §3
At the end of a two week period of differentiation, the area of cell clumps was calculated for each test well using the [sequence] ZOOM™ System (Essen BioScience, Ann Arbor Mich.) by defining the area of cell mass ≥10,000 μm2 as a cell clump and the data plotted in FIG. 6.

H9 ESC-derived NSCs [8] = experiment: Cell toxicity during differentiation of NSCs; type: cell-based, human; conditions: 160 micromolar
From the text: as §3
At the end of a two week period of differentiation, the area of cell clumps was calculated for each test well using the [sequence]

C[C@H](NC(=O)Cc1cc(F)cc(F)c1)C(=O)N[C@H]1N=C(c2ccccc2)c2ccccc2N(C)C1=O [Compound E, (S,S)-2-[2-(3,5-difluorophenyl)-acetylamino]-N-(1-methyl-2-oxo-5-phenyl-2-,3-dihydro-1H-benzo[e][1,4]diazepin-3-yl)-propionamide]
cell clump formation (phase-contrast image) [1]: without formation of cell clumps
GFAP positive astrocytes [2]: essentially eliminated
reduction in cell count vs control culture (NSC cultures; Day 4): ~2.5 fold
relative fluorescence units (cell proliferation) (NSC cultures; Day 4, control 0.93): 0.36 RFU
relative fluorescence units (cell proliferation) (NSC cultures; Day 7, control 2.94): 0.55 RFU
increase in RFU at Day 7 compared to Day 4 (NSC cultures; Day 7 vs Day 4): ~1.5 fold
relative fluorescence units (cell proliferation) (NSC cultures; Day 14, control 18.7): 0.41 RFU
relative fluorescence units (cell proliferation) (NSC cultures; Day 21, control 21.5): 0.30 RFU
proliferation of neural stem cells (EdU positive cells) (H9 ESC-derived NSCs [3]): substantially arrested
cell death (caspase 9 positive cells) (H9 ESC-derived NSCs [4]): no significant amount of cell death
percentage of cells co-stained positive for HuC/D and negative for SOX1 (H9 ESC-derived NSCs [5]; at 0.2 micromolar): 74.9%
neurite outgrowth (phase-contrast) (iPSC-derived NSCs; Day 5): extended neurite outgrowth
neuronal phenotype (DCX stain) (iPSC-derived NSCs; Day 7): most of the cells present have adopted a neuronal phenotype
proliferation of NESTIN positive cells (iPSC-derived NSCs; Day 7): substantially retarded
proliferating progenitor cells (iPSC-derived NSCs; Day 14): fewer proliferating progenitor cells are present
time differentiated neuronal cells can be maintained in culture (H9 ESC-derived NSCs [6]): at least five weeks
reduction in cell clumping (H9 ESC-derived NSCs [7]; Compound E 0.2 micromolar, two weeks of differentiation, cell mass >=10,000 μm2 counted as clump, vs without inhibitor): 90%
cell clumping vs control group (cell clump area, FIG. 6) (H9 ESC-derived NSCs [7]): significant reduction in cell clumping

C[C@H](NC(=O)Cc1cc(F)cc(F)c1)C(=O)N[C@H]1N=C(c2ccccc2)c2ccccc2N(C)C1=O [YO-01027, (S,S)-2-[2-(3,5-difluorophenyl)-acetylamino]-N-(1-methyl-2-oxo-5-phenyl-2-,3-dihydro-1H-benzo[e][1,4]diazepin-3-yl)-propionamide]
percentage of cells co-stained positive for HuC/D and negative for SOX1 (H9 ESC-derived NSCs [5]; at 0.3 micromolar): 73.4%

C[C@H](NC(=O)[C@@H](O)c1cc(F)cc(F)c1)C(=O)N[C@@H]1C(=O)N(C)c2ccccc2-c2ccccc21 [LY411575, N-2((2S)-2-(3,5-difluorophenyl)-2-hydroxyethanoyl)-N1-((7S)-5-methyl-6-oxo-6,7-dihydro-5H-dibenzo[b,d]azepin-7-yl)-1-alaninamide]
percentage of cells co-stained positive for HuC/D and negative for SOX1 (H9 ESC-derived NSCs [5]; at 0.25 micromolar): 64.7%
cell clumping vs control group (cell clump area, FIG. 6) (H9 ESC-derived NSCs [7]): significant reduction in cell clumping

O=C(O)CC[C@H]1CC[C@@](c2cc(F)ccc2F)(S(=O)(=O)c2ccc(Cl)cc2)CC1 [MK-0752]
percentage of cells co-stained positive for HuC/D and negative for SOX1 (H9 ESC-derived NSCs [5]; at 20 micromolar): 64.7%
cell toxicity (H9 ESC-derived NSCs [8]): cell toxicity
cell clumping vs control group (cell clump area, FIG. 6) (H9 ESC-derived NSCs [7]): significant reduction in cell clumping
